Results as given in ChEMBL document CHEMBL1154879, “Discovery of (thienopyrimidin-2-yl)aminopyrimidines as potent, selective, and orally available pan-PI3-kinase and dual pan-PI3-kinase/mTOR inhibitors for the treatment of cancer” (J Med Chem, 2010).
The source made the active and inactive calls. No cut-off for these calls is given here.

Experiments:
[1] = molecular target: Phosphatidylinositol 4-phosphate 3-kinase C2 domain-containing subunit alpha (Homo sapiens) (UniProt O00443); assay: Inhibition of PIK3C2alpha at 1 uM
[2] = molecular target: Phosphatidylinositol 4-phosphate 3-kinase C2 domain-containing subunit beta (Homo sapiens) (UniProt O00750); assay: Inhibition of PIK3C2beta at 1 uM
Sequence of Phosphatidylinositol 4-phosphate 3-kinase C2 domain-containing subunit beta (Homo sapiens) (O00750 whole entry, the tested form may be a part): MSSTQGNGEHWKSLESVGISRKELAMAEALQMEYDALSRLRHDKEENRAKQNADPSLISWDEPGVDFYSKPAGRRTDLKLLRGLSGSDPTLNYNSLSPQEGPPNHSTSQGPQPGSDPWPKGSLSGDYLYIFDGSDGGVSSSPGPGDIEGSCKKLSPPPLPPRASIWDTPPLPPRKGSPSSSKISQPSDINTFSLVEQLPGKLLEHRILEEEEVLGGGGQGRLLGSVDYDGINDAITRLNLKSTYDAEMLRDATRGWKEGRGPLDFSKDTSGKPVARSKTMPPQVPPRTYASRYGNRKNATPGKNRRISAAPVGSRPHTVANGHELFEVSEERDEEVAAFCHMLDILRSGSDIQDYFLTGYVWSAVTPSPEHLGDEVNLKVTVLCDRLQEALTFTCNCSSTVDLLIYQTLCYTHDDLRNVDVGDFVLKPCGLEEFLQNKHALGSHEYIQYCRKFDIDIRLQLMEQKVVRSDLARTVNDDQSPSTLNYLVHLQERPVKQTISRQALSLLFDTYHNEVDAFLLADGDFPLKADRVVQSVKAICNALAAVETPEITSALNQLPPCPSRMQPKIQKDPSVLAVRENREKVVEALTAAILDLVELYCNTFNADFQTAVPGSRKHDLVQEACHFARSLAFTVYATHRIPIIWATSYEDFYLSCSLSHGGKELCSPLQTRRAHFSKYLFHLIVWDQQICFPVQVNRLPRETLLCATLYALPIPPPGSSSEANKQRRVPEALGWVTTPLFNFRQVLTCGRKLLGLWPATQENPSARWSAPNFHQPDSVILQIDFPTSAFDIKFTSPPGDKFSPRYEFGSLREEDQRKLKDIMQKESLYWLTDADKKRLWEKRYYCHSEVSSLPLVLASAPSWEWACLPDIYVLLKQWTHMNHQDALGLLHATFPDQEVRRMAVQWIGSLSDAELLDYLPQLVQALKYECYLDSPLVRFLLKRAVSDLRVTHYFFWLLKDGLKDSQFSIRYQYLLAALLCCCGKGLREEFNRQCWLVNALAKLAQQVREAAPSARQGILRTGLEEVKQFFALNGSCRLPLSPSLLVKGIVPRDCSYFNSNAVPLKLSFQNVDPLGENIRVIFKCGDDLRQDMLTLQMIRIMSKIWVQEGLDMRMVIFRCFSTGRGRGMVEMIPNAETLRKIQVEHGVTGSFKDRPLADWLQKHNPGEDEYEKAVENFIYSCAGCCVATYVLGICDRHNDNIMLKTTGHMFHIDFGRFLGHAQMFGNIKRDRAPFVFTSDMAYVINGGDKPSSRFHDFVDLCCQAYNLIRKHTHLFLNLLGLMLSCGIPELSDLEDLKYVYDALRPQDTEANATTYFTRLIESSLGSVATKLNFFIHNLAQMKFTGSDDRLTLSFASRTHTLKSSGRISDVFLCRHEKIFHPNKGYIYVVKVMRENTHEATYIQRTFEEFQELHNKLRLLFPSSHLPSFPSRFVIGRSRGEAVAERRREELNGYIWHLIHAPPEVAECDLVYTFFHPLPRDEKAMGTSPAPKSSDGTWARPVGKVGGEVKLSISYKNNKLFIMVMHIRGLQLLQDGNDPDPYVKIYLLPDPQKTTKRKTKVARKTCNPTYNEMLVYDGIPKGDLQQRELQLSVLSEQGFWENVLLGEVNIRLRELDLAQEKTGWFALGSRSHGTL

[3] = molecular target: Phosphatidylinositol 3-kinase catalytic subunit type 3 (Homo sapiens) (UniProt Q8NEB9); assay: Inhibition of VPS34 at 1 uM
Sequence of Phosphatidylinositol 3-kinase catalytic subunit type 3 (Homo sapiens) (Q8NEB9 whole entry): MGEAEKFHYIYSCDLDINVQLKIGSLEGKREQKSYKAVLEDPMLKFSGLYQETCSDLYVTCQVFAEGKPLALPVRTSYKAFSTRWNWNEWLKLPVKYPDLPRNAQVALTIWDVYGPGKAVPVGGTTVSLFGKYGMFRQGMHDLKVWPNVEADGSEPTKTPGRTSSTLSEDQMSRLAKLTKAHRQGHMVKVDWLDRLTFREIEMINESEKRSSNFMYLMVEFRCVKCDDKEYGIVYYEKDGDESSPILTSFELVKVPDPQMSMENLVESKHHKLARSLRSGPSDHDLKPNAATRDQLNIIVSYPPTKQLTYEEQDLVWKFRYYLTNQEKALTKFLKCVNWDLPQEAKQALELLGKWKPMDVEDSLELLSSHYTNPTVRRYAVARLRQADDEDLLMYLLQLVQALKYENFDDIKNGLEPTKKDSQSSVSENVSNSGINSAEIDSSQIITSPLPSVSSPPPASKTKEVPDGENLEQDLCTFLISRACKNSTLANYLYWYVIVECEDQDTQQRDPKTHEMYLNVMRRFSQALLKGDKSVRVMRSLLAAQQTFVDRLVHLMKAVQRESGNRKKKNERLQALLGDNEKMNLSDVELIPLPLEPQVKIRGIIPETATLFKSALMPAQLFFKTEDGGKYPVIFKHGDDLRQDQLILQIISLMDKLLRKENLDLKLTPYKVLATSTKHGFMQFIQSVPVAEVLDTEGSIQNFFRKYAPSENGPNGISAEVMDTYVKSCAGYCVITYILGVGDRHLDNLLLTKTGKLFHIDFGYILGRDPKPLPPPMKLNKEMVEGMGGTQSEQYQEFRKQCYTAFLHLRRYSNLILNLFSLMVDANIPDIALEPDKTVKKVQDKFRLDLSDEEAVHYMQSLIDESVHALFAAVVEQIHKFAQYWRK

Mus musculus [4] = assay: Inhibition of PI3K/Akt/mTOR pathway signaling in PI3Kalpha mutant expressing human MCF7.1 cells xenografted nu/nu mouse assessed as inhibition of Akt Ser473 phosphorylation at 6.25 mg/kg, po qd for 21 days measured 4 hrs after last administered dose on day 21 by electrochemiluminescence assay; format: functional
Mus musculus [5] = assay: Inhibition of PI3K/Akt/mTOR pathway signaling in PI3Kalpha mutant expressing human MCF7.1 cells xenografted nu/nu mouse assessed as inhibition of Akt Ser473 phosphorylation at 12.5 mg/kg, po qd for 21 days measured 4 hrs after last administered dose on day 21 by electrochemiluminescence assay; format: functional
Mus musculus [6] = assay: Inhibition of PI3K/Akt/mTOR pathway signaling in PI3Kalpha mutant expressing human MCF7.1 cells xenografted nu/nu mouse assessed as inhibition of Akt Ser473 phosphorylation at 25 mg/kg, po qd for 21 days measured 4 hrs after last administered dose on day 21 by electrochemiluminescence assay; format: functional
Mus musculus [7] = assay: Inhibition of PI3K/Akt/mTOR pathway signaling in PI3Kalpha mutant expressing human MCF7.1 cells xenografted nu/nu mouse assessed as inhibition of Pras40 Thr246 phosphorylation at 6.25 mg/kg, po qd for 21 days measured 1 hr after last administered dose on day 21 by ELISA; format: functional
Mus musculus [8] = assay: Inhibition of PI3K/Akt/mTOR pathway signaling in PI3Kalpha mutant expressing human MCF7.1 cells xenografted nu/nu mouse assessed as inhibition of Pras40 Thr246 phosphorylation at 6.25 mg/kg, po qd for 21 days measured 4 hrs after last administered dose on day 21 by ELISA; format: functional
Mus musculus [9] = assay: Inhibition of PI3K/Akt/mTOR pathway signaling in PI3Kalpha mutant expressing human MCF7.1 cells xenografted nu/nu mouse assessed as inhibition of Pras40 Thr246 phosphorylation at 25 mg/kg, po qd for 21 days measured 1 hr after last administered dose on day 21 by ELISA; format: functional
[10] = Antitumor activity against human MCF7.1 cells expressing PI3Kalpha mutant xenografted in nu/nu mouse assessed as inhibition of tumor growth at 50 mg/kg, po qd for 21 days; format: functional; conditions: MCF7.1, 504 h, read-out: TGI
[11] = Antitumor activity against human MCF7.1 cells expressing PI3Kalpha mutant xenografted in nu/nu mouse assessed as inhibition of tumor growth at 6.25 mg/kg, po qd for 21 days; format: functional; conditions: MCF7.1, 504 h, read-out: TGI
MCF7.1 = assay: Antitumor activity against human MCF7.1 cells expressing PI3Kalpha mutant xenografted in nu/nu mouse assessed as inhibition of tumor growth at 25 mg/kg, po qd for 21 days; format: functional, organism-based; design: dose 25 mg/kg
Mus musculus [12] = assay: Toxicity in human MCF7.1 cells expressing PI3Kalpha mutant xenografted nu/nu mouse assessed as body weight loss at 6.25 mg/kg, po qd for 21 days; format: organism-based; design: dose 6.25 mg/kg, route oral; conditions: in vivo, 504 h
Mus musculus [13] = assay: Toxicity in human MCF7.1 cells expressing PI3Kalpha mutant xenografted nu/nu mouse assessed as body weight loss at 12.5 mg/kg, po qd for 21 days; format: organism-based; design: dose 12.5 mg/kg, route oral; conditions: in vivo, 504 h
Mus musculus [14] = assay: Toxicity in human MCF7.1 cells expressing PI3Kalpha mutant xenografted nu/nu mouse assessed as body weight loss at 50 mg/kg, po qd for 21 days; format: organism-based; design: dose 50 mg/kg, route oral; conditions: in vivo, 504 h
Mus musculus [15] = assay: Inhibition of PI3K/Akt/mTOR pathway signaling in PI3Kalpha mutant expressing human MCF7.1 cells xenografted nu/nu mouse assessed as inhibition of S6RP Ser235/236 phosphorylation at 6.25 mg/kg, po qd for 21 days measured 1 hr after last administered dose on day 21 by electrochemiluminescence assay; format: functional
Mus musculus [16] = assay: Inhibition of PI3K/Akt/mTOR pathway signaling in PI3Kalpha mutant expressing human MCF7.1 cells xenografted nu/nu mouse assessed as inhibition of S6RP Ser235/236 phosphorylation at 12.5 mg/kg, po qd for 21 days measured 1 hr after last administered dose on day 21 by electrochemiluminescence assay; format: functional
Mus musculus [17] = assay: Inhibition of PI3K/Akt/mTOR pathway signaling in PI3Kalpha mutant expressing human MCF7.1 cells xenografted nu/nu mouse assessed as inhibition of S6RP Ser235/236 phosphorylation at 25 mg/kg, po qd for 21 days measured 1 hr after last administered dose on day 21 by electrochemiluminescence assay; format: functional
[18] = Half life in nu/nu mouse at 5 mg/kg, po; format: ADME, organism-based; design: dose 5 mg/kg, route oral; conditions: in vivo
Aurora kinase A = molecular target: T1, Aurora kinase A (Homo sapiens, UniProt O14965); assay: Inhibition of Aurora A kinase
T1 sequence (O14965 whole entry): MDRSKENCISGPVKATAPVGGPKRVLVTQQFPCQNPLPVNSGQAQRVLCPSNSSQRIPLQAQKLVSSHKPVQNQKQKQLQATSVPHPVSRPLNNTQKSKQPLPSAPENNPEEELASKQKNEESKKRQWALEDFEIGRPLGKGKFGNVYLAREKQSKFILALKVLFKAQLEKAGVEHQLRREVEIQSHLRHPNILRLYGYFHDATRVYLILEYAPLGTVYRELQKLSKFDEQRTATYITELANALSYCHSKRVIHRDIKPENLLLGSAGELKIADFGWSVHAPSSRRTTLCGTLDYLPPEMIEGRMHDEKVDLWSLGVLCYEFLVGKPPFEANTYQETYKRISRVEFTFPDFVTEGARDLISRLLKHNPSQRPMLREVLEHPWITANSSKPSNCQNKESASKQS

[19] = molecular target: Mitogen-activated protein kinase kinase kinase 9 (Homo sapiens, UniProt P80192); assay: Inhibition of MLK1
Sequence of Mitogen-activated protein kinase kinase kinase 9 (P80192 whole entry, canonical isoform): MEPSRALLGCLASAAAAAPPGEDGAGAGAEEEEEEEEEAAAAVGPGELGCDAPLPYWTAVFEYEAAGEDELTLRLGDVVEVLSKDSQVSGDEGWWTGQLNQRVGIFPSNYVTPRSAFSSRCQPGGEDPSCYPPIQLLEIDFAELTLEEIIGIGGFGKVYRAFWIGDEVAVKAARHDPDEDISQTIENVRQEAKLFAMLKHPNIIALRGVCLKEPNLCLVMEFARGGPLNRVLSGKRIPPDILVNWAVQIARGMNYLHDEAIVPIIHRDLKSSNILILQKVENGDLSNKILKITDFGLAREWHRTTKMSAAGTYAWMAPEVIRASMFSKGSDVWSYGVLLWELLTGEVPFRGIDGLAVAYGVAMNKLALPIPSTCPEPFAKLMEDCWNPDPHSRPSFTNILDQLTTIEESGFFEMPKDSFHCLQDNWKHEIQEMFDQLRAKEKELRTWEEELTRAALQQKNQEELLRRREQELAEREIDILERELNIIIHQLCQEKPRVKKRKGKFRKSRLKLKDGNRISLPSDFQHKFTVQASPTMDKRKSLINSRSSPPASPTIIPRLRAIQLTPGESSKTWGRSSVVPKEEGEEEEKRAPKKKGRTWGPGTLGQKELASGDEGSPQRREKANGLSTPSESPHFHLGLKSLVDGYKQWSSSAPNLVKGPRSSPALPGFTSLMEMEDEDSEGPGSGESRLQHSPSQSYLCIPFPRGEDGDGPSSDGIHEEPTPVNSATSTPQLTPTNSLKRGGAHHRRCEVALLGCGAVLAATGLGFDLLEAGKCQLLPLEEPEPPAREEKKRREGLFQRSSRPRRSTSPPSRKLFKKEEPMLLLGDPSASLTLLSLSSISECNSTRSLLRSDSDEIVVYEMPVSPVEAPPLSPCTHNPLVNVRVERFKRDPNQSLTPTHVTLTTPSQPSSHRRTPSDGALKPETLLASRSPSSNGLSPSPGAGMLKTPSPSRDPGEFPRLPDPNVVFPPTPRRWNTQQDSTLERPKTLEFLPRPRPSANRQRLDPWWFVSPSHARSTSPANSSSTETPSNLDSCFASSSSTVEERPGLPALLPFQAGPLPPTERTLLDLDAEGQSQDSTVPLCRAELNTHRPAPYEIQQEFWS

[20] = molecular target: Phosphatidylinositol 4,5-bisphosphate 3-kinase catalytic subunit beta isoform (Homo sapiens, UniProt P42338); assay: Inhibition of recombinant PI3Kbeta assessed as PIP3 product formation by fluorescence polarization assay
Sequence of Phosphatidylinositol 4,5-bisphosphate 3-kinase catalytic subunit beta isoform (P42338 whole entry, canonical isoform): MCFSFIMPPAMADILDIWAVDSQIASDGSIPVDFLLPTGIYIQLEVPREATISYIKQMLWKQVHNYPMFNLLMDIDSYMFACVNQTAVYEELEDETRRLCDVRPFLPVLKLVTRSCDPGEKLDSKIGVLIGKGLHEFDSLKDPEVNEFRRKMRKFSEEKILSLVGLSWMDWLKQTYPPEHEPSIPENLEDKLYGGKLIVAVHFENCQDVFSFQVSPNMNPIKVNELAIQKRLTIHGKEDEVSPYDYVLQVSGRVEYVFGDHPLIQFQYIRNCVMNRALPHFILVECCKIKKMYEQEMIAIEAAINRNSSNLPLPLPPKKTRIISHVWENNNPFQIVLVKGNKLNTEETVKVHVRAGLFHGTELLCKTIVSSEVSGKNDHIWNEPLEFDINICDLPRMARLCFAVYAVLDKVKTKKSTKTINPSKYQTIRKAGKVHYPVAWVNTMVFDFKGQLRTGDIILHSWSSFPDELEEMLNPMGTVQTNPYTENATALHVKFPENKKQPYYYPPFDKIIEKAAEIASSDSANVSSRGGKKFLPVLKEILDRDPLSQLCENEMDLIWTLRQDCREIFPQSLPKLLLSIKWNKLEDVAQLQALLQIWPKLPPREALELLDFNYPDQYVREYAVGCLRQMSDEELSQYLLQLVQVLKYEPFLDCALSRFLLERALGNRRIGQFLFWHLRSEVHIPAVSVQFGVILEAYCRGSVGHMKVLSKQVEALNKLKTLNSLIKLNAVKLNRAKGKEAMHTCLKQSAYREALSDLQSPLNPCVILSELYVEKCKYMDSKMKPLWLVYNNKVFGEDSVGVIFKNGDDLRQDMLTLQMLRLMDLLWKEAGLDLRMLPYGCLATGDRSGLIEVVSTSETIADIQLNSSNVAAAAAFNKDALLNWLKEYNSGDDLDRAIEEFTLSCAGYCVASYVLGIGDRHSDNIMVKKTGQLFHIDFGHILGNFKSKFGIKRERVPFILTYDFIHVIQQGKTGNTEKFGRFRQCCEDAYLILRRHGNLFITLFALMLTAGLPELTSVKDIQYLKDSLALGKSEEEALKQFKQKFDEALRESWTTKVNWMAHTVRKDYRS

[21] = Antiproliferative activity against human MCF7.1 cells expressing PI3Kalpha mutant after 3 to 4 days; format: functional, cell-based
[22] = AUC in nu/nu mouse at 5 mg/kg, po; format: ADME, organism-based; design: dose 5 mg/kg, route oral; conditions: plasma
[23] = Protein binding in mouse plasma; format: ADME, cell-free; conditions: read-out: PPB (converted)
[24] = molecular target: Serine/threonine-protein kinase mTOR (Homo sapiens, UniProt P42345)

## Cc1nc(N)ncc1-c1nc(N2CCOCC2)c2sc(C(C)(C)O)cc2n1
[1]
  inhibition: inactive
[2]
  inhibition: 81%
[3]
  inhibition: inactive
Mus musculus [4]
  inhibition in vivo at 6.25 mg/kg: 43%
Mus musculus [5]
  inhibition in vivo at 12.5 mg/kg: 48%
Mus musculus [6]
  inhibition in vivo at 25 mg/kg: 66%
Mus musculus [7]
  inhibition in vivo at 6.25 mg/kg: 98%
Mus musculus [8]
  inhibition in vivo at 6.25 mg/kg: 54%
Mus musculus [9]
  inhibition in vivo at 25 mg/kg: 97%
[10]
  inhibition in vivo at 50 mg/kg: 88%
[11]
  inhibition in vivo at 6.25 mg/kg: 28%
MCF7.1
  Activity: Active
Mus musculus [12]
  Activity: Non-toxic
Mus musculus [13]
  Activity: Non-toxic
Mus musculus [14]
  Activity: Non-toxic
Mus musculus [15]
  inhibition in vivo at 6.25 mg/kg: 70%
Mus musculus [16]
  inhibition in vivo at 12.5 mg/kg: 77%
Mus musculus [17]
  inhibition in vivo at 25 mg/kg: 74%
[18]
  half-life: 4.6 h
Aurora kinase A
  IC50: > 1000 nM
[19]
  IC50: > 1000 nM
[20]
  IC50: 25 nM
[21]
  IC50: 280 nM
[22]
  AUC: 4.8 µM·h
[23]
  fraction unbound: 0.27
[24]
  IC50: 750 nM
